# Data as given in publication PMC9866728, “Dosing Methods to Enable Cell-Based In Vitro Testing of Complex Substances: A Case Study with a PAH Mixture” (Toxics, 2022).
# Where “and” joins values, the source holds several entries; their conditions need not be identical. Equal entries are not always repeated. Where two headings read alike, the source gives them in different places.
# Experiments:
# [1] = Loading kinetics of silicone micro-O-rings from methanol PAH solution (GC-MS/MS); type: physicochemical
# [2] = Recovery over time from exposure to cell culture media without cells (GC-MS/MS); type: physicochemical
# [3] = Table S1; ref PubChem; cited from earlier work
# [4] = O-ring loading rate constant, larger O-rings; ref Smith et al. 2010 [24]; cited from earlier work
# [5] = Smith et al. O-Rings; ref Smith et al. 2010 [24]; cited from earlier work
# [6] = loading rate constant, one-phase association (h^-1), 10 µg/mL PAH mix in methanol
# [7] = one-phase association fit of nominal Csilicone (µg/mL per Eq 1), 10 µg/mL PAH mix in methanol
# [8] = one-phase association fit of nominal Csilicone, 10 µg/mL PAH mix in methanol, 0-24 h
# [9] = one-phase association fit, micro-O-ring absorption
# [10] = MAF (400 ng/mL each PAH), one phase decay fit of nominal recovery
# [11] = MAF (400 ng/mL each PAH), one phase decay fit of nominal recovery (text: ng/mL)
# [12] = O-Rings (loaded in 10 µg/mL PAH solution), one phase association fit of nominal recovery
# [13] = O-Rings, one phase association fit
# [14] = O-Rings, one phase association fit (desorption into media)
# [15] = Solvent Extract (DMSO, 15 ng/mL each PAH), one phase decay fit of nominal recovery
# [16] = Solvent Extract (DMSO, 15 ng/mL each PAH), one phase decay fit of nominal recovery (text: ng/mL)
# [17] = Solvent Extract, one phase decay fit
Compound,"K Value [1, 6]","Plateau Value [1, 7]","Y0 [1, 8]","Half-time Value [1, 9]","Span Value [1, 9]","Tau Value [1, 9]","Y0 [2, 10]","Plateau [2, 11]","K ([2]; MAF, one phase decay fit)","Span ([2]; MAF, one phase decay fit)","Tau ([2]; MAF, one phase decay fit)","Plateau [2, 12]",Half-time Value [1],K Value [1],Plateau Value [1],Span Value [1],Tau Value [1],Y0 [1],Half-time [2],Smith et al. 2010 K Value [4],other results
Cc1cccc2ccccc12 [1-Methylnaphthalene],26.6865,0.8912,0,0.02597,0.8912,0.03747,399.6,37.1,1.206,362.5,0.8293,1.035,–,–,–,–,–,–,–,–,"best-fit rate constants (micro-O-ring loading) ([1]; loading from methanol solution): 26.7 h⁻¹; Y0 [2, 12]: -0.0496; Half-time [2, 13]: 1.691; Span [2, 13]: 1.085; Tau [2, 13]: 2.439; K [2, 14]: 0.41; Y0 [2, 15]: 14.94; Plateau [2, 16]: 2.307; K [2, 17]: 0.9085; Span [2, 17]: 12.63; Tau [2, 17]: 1.101; LogKow (PubChem) [3]: 3.87"
Cc1ccc2ccccc2c1 [2-Methylnaphthalene],–,–,–,–,–,–,–,–,–,–,–,–,0.02597,26.6855,0.8914,0.8914,0.03747,0,0.5872,–,best-fit rate constants (micro-O-ring loading) [1]: 26.7 h⁻¹; K [2]: 1.206 and 1.18 and 0.9072; Tau [2]: 0.8294 and 0.8472 and 1.102
c1cc2c3c(cccc3c1)CC2 [Acenaphthene],22.38,0.8224,0,0.03097,0.8224,0.04468,398.6,44.72,0.9374,353.9,1.067,0.8203,–,–,–,–,–,–,–,1.8,"Y0 [2, 12]: -0.03588; Half-time [2, 13]: 2.678; Span [2, 13]: 0.8562; Tau [2, 13]: 3.863; K [2, 14]: 0.2589; Y0 [2, 15]: 14.88; Plateau [2, 16]: 2.58; K [2, 17]: 0.7259; Span [2, 17]: 12.3; Tau [2, 17]: 1.378; LogKow (PubChem) [3]: 3.92"
C1=Cc2cccc3cccc1c23 [Acenaphthylene],22.7382,0.6656,0,0.03048,0.6656,0.04398,399.1,41.99,1.016,357.1,0.9842,0.6692,–,–,–,–,–,–,–,–,"Y0 [2, 12]: -0.08033; Half-time [2, 13]: 0.6114; Span [2, 13]: 0.7495; Tau [2, 13]: 0.882; K [2, 14]: 1.134; Y0 [2, 15]: 14.88; Plateau [2, 16]: 2.66; K [2, 17]: 0.7341; Span [2, 17]: 12.22; Tau [2, 17]: 1.362"
c1ccc2cc3ccccc3cc2c1 [Anthracene],27.2512,0.255,0,0.02544,0.255,0.0367,398.5,49.04,0.9206,349.4,1.086,0.3725,–,–,–,–,–,–,–,1.82,"Y0 [2, 12]: -0.1844; Half-time [2, 13]: 0.1723; Span [2, 13]: 0.5569; Tau [2, 13]: 0.2486; K [2, 14]: 4.022; Y0 [2, 15]: 14.66; Plateau [2, 16]: 2.703; K [2, 17]: 0.5624; Span [2, 17]: 11.96; Tau [2, 17]: 1.778; K [5]: 2.3; LogKow (PubChem) [3]: 4.45"
c1ccc2cc3c(ccc4ccccc43)cc2c1 [Benzo[a]anthracene],–,–,–,–,–,–,–,–,–,–,–,–,4.451,0.1557,0.1684,0.1684,6.421,0,2.255,1.38,–
c1ccc2c(c1)cc1ccc3cccc4ccc2c1c34 [Benzo[a]pyrene],33.8629,0.1047,0,0.02047,0.1047,0.02953,391.4,203.9,0.5026,187.5,1.989,1.337,–,–,–,–,–,–,–,1.32,"Y0 [2, 12]: 0.02292; Half-time [2, 13]: 1.658; Span [2, 13]: 1.314; Tau [2, 13]: 2.392; K [2, 14]: 0.418; Y0 [2, 15]: 15.28; Plateau [2, 16]: 6.176; K [2, 17]: 0.1275; Span [2, 17]: 9.105; Tau [2, 17]: 7.845; K [5]: 0.57; LogKow (PubChem) [3]: 6.13"
c1ccc2c(c1)-c1cccc3c1c-2cc1ccccc13 [Benzo[b]fluoranthene],–,–,–,–,–,–,–,–,–,–,–,–,0.02358,29.3997,0.1089,0.1089,0.03401,0,1.392,–,–
"c1cc2ccc3ccc4ccc5cccc6c(c1)c2c3c4c56 [Benzo[g,h,i]perylene]",–,–,–,–,–,–,–,–,–,–,–,–,0.01297,53.4605,0.06193,0.06193,0.01871,0,1.63,–,–
c1ccc2cc3c(cc2c1)-c1cccc2cccc-3c12 [Benzo[k]fluoranthene],29.8778,0.1081,0,0.0232,0.1081,0.03347,386,124.5,0.2609,261.5,3.833,0.7223,–,–,–,–,–,–,–,–,"Y0 [2, 12]: 0.005418; Half-time [2, 13]: 1.391; Span [2, 13]: 0.7169; Tau [2, 13]: 2.006; K [2, 14]: 0.4984; Y0 [2, 15]: 15.74; Plateau [2, 16]: 4.199; K [2, 17]: 0.1008; Span [2, 17]: 11.54; Tau [2, 17]: 9.919; LogKow (PubChem) [3]: 6.11"
c1ccc(-c2ccccc2)cc1 [Biphenyl],–,–,–,–,–,–,–,–,–,–,–,–,0.02096,33.0653,0.6997,0.6997,0.03024,0,0.591,–,K [2]: 1.298 and 1.173 and 1.091; Tau [2]: 0.7703 and 0.8527 and 0.917
c1ccc2c(c1)ccc1c3ccccc3ccc21 [Chrysene],–,–,–,–,–,–,–,–,–,–,–,–,4.881,0.142,0.1581,0.1581,7.042,0,77098,1.37,–
"c1ccc2c(c1)ccc1cc3c(ccc4ccccc43)cc12 [Dibenzo[a,h]anthracene]",–,–,–,–,–,–,–,–,–,–,–,–,3.094e-6,–,0.033,0.033,4.463e-6,0,1.539,1.1,–
"c1ccc2c(c1)-c1ccc3ccc4cccc5cc-2c1c3c45 [Indeno[1,2,3-cd]pyrene]",–,–,–,–,–,–,–,–,–,–,–,–,0.01649,42.0316,0.0758,0.0758,0.02379,0,2.714,–,–
c1ccc2ccccc2c1 [Naphthalene],33.9576,0.7013,0,0.02041,0.7013,0.02945,399.7,38.47,1.287,361.2,0.7773,1.084,–,–,–,–,–,–,–,2.38,"Y0 [2, 12]: -0.1564; Half-time [2, 13]: 0.378; Span [2, 13]: 1.24; Tau [2, 13]: 0.5454; K [2, 14]: 1.834; Y0 [2, 15]: 14.8; Plateau [2, 16]: 3.339; K [2, 17]: 0.6384; Span [2, 17]: 11.46; Tau [2, 17]: 1.566; K [5]: 3.55"
c1cc2cccc3c4cccc5cccc(c(c1)c23)c54 [Perylene],–,–,–,–,–,–,–,–,–,–,–,–,0.02047,33.856,0.1047,0.1047,0.02954,0,1.656,–,–
c1cc2ccc3cccc4ccc(c1)c2c34 [Pyrene],–,–,–,–,–,–,–,–,–,–,–,–,0.03121,22.209,0.4017,0.4017,0.04503,0,0.6521,1.35,K [5]: 1.04
